Experimental data reported in patent publication US20260166021A1, “POLYMORPHIC FORMS OF A SOLUBLE EPOXIDE HYDROLASE INHIBITOR AND FORMULATIONS THEREOF” (EicOsis, LLC, priority 2022, published 2026).
Converted amounts (≈) assume the structure as drawn. “And” between values parts separate entries of the source, which are not always exact repeats. Equal values may be shown once. Marks after values point to notes of the source that are not given here.

How the values were obtained:
Assay type in all cases: physicochemical
[1] = Particle size analysis (Malvern particle sizer, dry method; optical microscopy)
Description: Particle size was first analyzed with optical microscopy.
Particle size was also analyzed with a dry-method using a Malvern 300 particle sizer equipped with a standard energy venturi and utilizing 2.5 bar, 3.0 bar, and 3.5 bar air pressure. […] One possible explanation is that the insufficient energy was provided to break up particle agglomerations.
Based on these findings, particle size analysis was repeated at 2.5, 3.0, and 3.5 bar using a higher energy venturi to ensure the break-up of the potential agglomerates. The detailed particle sizing data using high-energy venturi are summarized in TABLE 26 and in FIGS. 114-119, with FIGS. 114-116 corresponding to 2.5, 3.0, and 3.5 bar analyses of unmilled Form D and FIGS. 117-119 corresponding to 2.5, 3.0, and 3.5 bar analyses of micronized Form D, respectively. While the data remained bimodal, indicating incomplete break-up of particle agglomerates, the D90 of micronized material measured below 6 μm, in closer agreement with the optical analyses.

[2] = Supersaturation monitoring in PEG 300; settings: for Step → Observation: PEG 300 (0.5 mL)
[3] = Equilibrium-solubility screening in solvents and excipients
Description: For these analyses, Form D or Form C was mixed with 0.5 or 1.0 mL of solvents and equilibrated for approximately 24 hours. The mixture was filtered through 0.45 μm centrifuge filters.
As expected, the compound was not easily ionized at physiologically relevant pH. […] In addition, these excipients included surfactants, co-solvents, and lipids which are amenable for use in self-emulsifying drug delivery systems (SEDDS). The XRD pattern of the starting material was maintained for each sample after equilibrium.

[4] = milled (micronized), 2.5 bar air pressure, high-energy venturi
[5] = milled (micronized), 2.5 bar air pressure, standard energy venturi
[6] = milled (micronized), 3.0 bar air pressure, high-energy venturi
[7] = milled (micronized), 3.0 bar air pressure, standard energy venturi
[8] = milled (micronized), 3.5 bar air pressure, high-energy venturi
[9] = milled (micronized), 3.5 bar air pressure, standard energy venturi
[10] = unmilled, 2.5 bar air pressure, high-energy venturi
[11] = unmilled, 2.5 bar air pressure, standard energy venturi
[12] = unmilled, 3.0 bar air pressure, high-energy venturi
[13] = unmilled, 3.0 bar air pressure, standard energy venturi
[14] = unmilled, 3.5 bar air pressure, high-energy venturi
[15] = unmilled, 3.5 bar air pressure, standard energy venturi
[16] = Capmul MCM, (medium name cut off)
[17] = Castor Oil, (medium name cut off)

CC[C@H](C)C(=O)N1CCC(NC(=O)Nc2ccc(OC(F)(F)F)c(F)c2)CC1 [Form D, (S)-1-(3-fluoro-4-(trifluoromethoxy)phenyl)-3-(1-(2-methylbutanoyl)piperidin-4-yl)urea]
D10 [1, 4]: 0.46 μm
D50 [1, 4]: 1.52 μm
D90 [1, 4]: 5.80 μm
PSD Modal [1, 4]: Bimodal
D10 [1, 5]: 0.56 μm
D50 [1, 5]: 1.85 μm
D90 [1, 5]: 45.9 μm
PSD Modal [1, 5]: Bimodal
D10 [1, 6]: 0.46 μm
D50 [1, 6]: 1.47 μm
D90 [1, 6]: 5.42 μm
PSD Modal [1, 6]: Bimodal
D10 [1, 7]: 0.55 μm
D50 [1, 7]: 1.80 μm
D90 [1, 7]: 47.4 μm
PSD Modal [1, 7]: Bimodal
D10 [1, 8]: 0.44 μm
D50 [1, 8]: 1.51 μm
D90 [1, 8]: 5.44 μm
PSD Modal [1, 8]: Bimodal
D10 [1, 9]: 0.54 μm
D50 [1, 9]: 1.69 μm
D90 [1, 9]: 29.4 μm
PSD Modal [1, 9]: Bimodal
D10 [1, 10]: 5.24 μm
D50 [1, 10]: 22.0 μm
D90 [1, 10]: 55.8 μm
PSD Modal [1, 10]: Bimodal
D10 [1, 11]: 8.66 μm
D50 [1, 11]: 34.5 μm
D90 [1, 11]: 79.3 μm
PSD Modal [1, 11]: Unimodal
D10 [1, 12]: 4.47 μm
D50 [1, 12]: 20.1 μm
D90 [1, 12]: 54.8 μm
PSD Modal [1, 12]: Bimodal
D10 [1, 13]: 8.26 μm
D50 [1, 13]: 35.0 μm
D90 [1, 13]: 91.2 μm
PSD Modal [1, 13]: Unimodal
D10 [1, 14]: 2.84 μm
D50 [1, 14]: 17.2 μm
D90 [1, 14]: 51.1 μm
PSD Modal [1, 14]: Bimodal
D10 [1, 15]: 7.37 μm
D50 [1, 15]: 33.1 μm
D90 [1, 15]: 78.6 μm
PSD Modal [1, 15]: Unimodal
Step → Observation ([2]; 100 mg/mL, 1. RT stirring for 1 hr, listed as Pattern D): 1. RT stirring for 1 hr → suspension
Step → Observation ([2]; 100 mg/mL, 2. 40 C. heating for 0.5 hr, listed as Pattern D): 2. 40 C. heating for 0.5 hr → clear solution
Step → Observation ([2]; 100 mg/mL, 3. RT storage for ~8 days, listed as Pattern D): 3. RT storage for ~8 days → clear solution
Step → Observation ([2]; 100 mg/mL, 4. RT storage for ~9 days, listed as Pattern D): 4. RT storage for ~9 days → precipitation
Step → Observation ([2]; 200 mg/mL, 1. RT stirring for 1 hr): 1. RT stirring for 1 hr →suspension
Step → Observation ([2]; 200 mg/mL, 2. 40 C. heating for 48 hr, listed as Pattern D): 2. 40 C. heating for 48 hr →suspension
Step → Observation ([2]; 200 mg/mL, 3. 55 C. heating for <16 hr): 3. 55 C. heating for <16 hr →clear solution
Step → Observation ([2]; 200 mg/mL, 4. RT storage for <3.5 days): 4. RT storage for <3.5 days →precipitation
Step → Observation ([2]; 200 mg/mL, 5. 55 C. reheating for overnight): 5. 55 C. reheating for overnight →clear solution
Step → Observation ([2]; 200 mg/mL, 6. RT storage for overnight): 6. RT storage for overnight →precipitation
Equilibrium Solubility ([3]; Campul MCM): 56.2 mg/mL
XRD Pattern At Equilibrium ([3]; Campul MCM): Form D
XRD Pattern At Equilibrium ([3]; Canola Oil): Form D
solubility thermodynamic at 24 h ([3]; Canola Oil, oil or lipid, thermodynamic from solid): < 100 µg/mL
Equilibrium Solubility [3, 16]: 24.5 mg/mL
XRD Pattern At Equilibrium [3, 16]: Form D
Equilibrium Solubility ([3]; Captex 355): 2.0 mg/mL
XRD Pattern At Equilibrium ([3]; Captex 355): Form D
Equilibrium Solubility ([3]; Castor Oil): 5.5 mg/mL
XRD Pattern At Equilibrium ([3]; Castor Oil): Form D
Equilibrium Solubility [3, 17]: 42.6** mg/mL
XRD Pattern At Equilibrium [3, 17]: Form D
XRD Pattern At Equilibrium ([3]; Corn Oil): Form D
solubility thermodynamic at 24 h ([3]; Corn Oil, oil or lipid, thermodynamic from solid): < 100 µg/mL
XRD Pattern At Equilibrium ([3]; DI water): Form C (minor
XRD Pattern At Equilibrium, minor form ([3]; DI water): Form D)
solubility thermodynamic at 24 h ([3]; DI water, water, thermodynamic from solid, approximately 24 hours): < 100 µg/mL
Equilibrium Solubility ([3]; FaSSIF): 0.2 mg/mL
XRD Pattern At Equilibrium ([3]; FaSSIF): Form D
solubility thermodynamic at 24 h ([3]; FaSSIF, thermodynamic from solid): < 100 µg/mL
Equilibrium Solubility ([3]; Gelucire 44/14): 37.7** mg/mL
XRD Pattern At Equilibrium ([3]; Gelucire 44/14): Form D
XRD Pattern At Equilibrium ([3]; Glycerol): Form D
solubility thermodynamic at 24 h ([3]; Glycerol, organic solvent or mixture, thermodynamic from solid): < 100 µg/mL
Equilibrium Solubility ([3]; Intralipid): 0.1 mg/mL
XRD Pattern At Equilibrium ([3]; Intralipid): Form D
Equilibrium Solubility ([3]; Kolliphor): 1.4 mg/mL
XRD Pattern At Equilibrium ([3]; Kolliphor): Form D
Equilibrium Solubility ([3]; Kolliphor EL): 20.4 mg/mL
XRD Pattern At Equilibrium ([3]; Kolliphor EL): Form D
Equilibrium Solubility ([3]; Kolliphor HS-): 37.3** mg/mL
XRD Pattern At Equilibrium ([3]; Kolliphor HS-): Form D
Equilibrium Solubility ([3]; Labrafil): 9.6 mg/mL
XRD Pattern At Equilibrium ([3]; Labrafil): Form D
Equilibrium Solubility ([3]; Labrasol): 21.8 mg/mL
XRD Pattern At Equilibrium ([3]; Labrasol): Form D
Equilibrium Solubility ([3]; Miglyol 810): 2.0 mg/mL
XRD Pattern At Equilibrium ([3]; Miglyol 810): Form D
Equilibrium Solubility ([3]; Miglyol 812): 1.9 mg/mL
XRD Pattern At Equilibrium ([3]; Miglyol 812): Form D
solubility thermodynamic at 24 h ([3]; NaOH solution, pH 10.0, pH 10, aqueous buffer, thermodynamic from solid, pH 10.0 NaOH): < 100 µg/mL
Equilibrium Solubility ([3]; Oleic Acid): 9.0 mg/mL
XRD Pattern At Equilibrium ([3]; Oleic Acid): Form D
Equilibrium Solubility ([3]; PEG 300, 50%): 0.4 mg/mL and 0.5 mg/mL
XRD Pattern At Equilibrium ([3]; PEG 300, 50%): Form D
XRD Pattern At Equilibrium ([3]; PEG 300, 100%): Form D
XRD Pattern At Equilibrium ([3]; PEG 400, 50%): Form D
solubility thermodynamic at 24 h ([3]; PEG 400, 50%, aqueous with cosolvent or surfactant or cyclodextrin, thermodynamic from solid): 900 µg/mL (≈ 2220 µM)
Equilibrium Solubility ([3]; PEG 400, 100%): 17.0 mg/mL
XRD Pattern At Equilibrium ([3]; PEG 400, 100%): Form D
solubility thermodynamic at 24 h ([3]; PEG 400, 100%, organic solvent or mixture, thermodynamic from solid): 20100 µg/mL (≈ 49600 µM)
Equilibrium Solubility ([3]; Peceol): 12.9 mg/mL
XRD Pattern At Equilibrium ([3]; Peceol): Form D
Equilibrium Solubility ([3]; Plurol Oleique): 8.7 mg/mL
XRD Pattern At Equilibrium ([3]; Plurol Oleique): Form D
Equilibrium Solubility ([3]; Propylene): 24.1 mg/mL
XRD Pattern At Equilibrium ([3]; Propylene): Form D
XRD Pattern At Equilibrium ([3]; SLS, 1x CMC): Form C
solubility thermodynamic at 24 h ([3]; SLS, 1x CMC, aqueous with cosolvent or surfactant or cyclodextrin, thermodynamic from solid): < 100 µg/mL
Equilibrium Solubility ([3]; SLS, 5x CMC): 1.2 mg/mL
XRD Pattern At Equilibrium ([3]; SLS, 5x CMC): Form C
Equilibrium Solubility ([3]; SLS, 10x CMC): 1.5 mg/mL
XRD Pattern At Equilibrium ([3]; SLS, 10x CMC): Form C
Equilibrium Solubility ([3]; SLS, 100x CMC): 2.5 mg/mL
XRD Pattern At Equilibrium ([3]; SLS, 100x CMC): Form C
XRD Pattern At Equilibrium ([3]; Soybean Oil): Form D
solubility thermodynamic at 24 h ([3]; Soybean Oil, oil or lipid, thermodynamic from solid): < 100 µg/mL
Equilibrium Solubility ([3]; Sulfobutylether): 7.9 mg/mL
XRD Pattern At Equilibrium ([3]; Sulfobutylether): Form D
Equilibrium Solubility ([3]; Transcutol HP): 38.1 mg/mL
XRD Pattern At Equilibrium ([3]; Transcutol HP): Form D
Equilibrium Solubility ([3]; Triacetin): 6.4 mg/mL
XRD Pattern At Equilibrium ([3]; Triacetin): Form D
XRD Pattern At Equilibrium ([3]; Tween 80, 1x): Form C
solubility thermodynamic at 24 h ([3]; Tween 80, 1x, aqueous with cosolvent or surfactant or cyclodextrin, thermodynamic from solid): < 100 µg/mL
XRD Pattern At Equilibrium ([3]; Tween 80, 5x): Form C
solubility thermodynamic at 24 h ([3]; Tween 80, 5x, aqueous with cosolvent or surfactant or cyclodextrin, thermodynamic from solid): < 100 µg/mL
XRD Pattern At Equilibrium ([3]; Tween 80, 10x): Form C
solubility thermodynamic at 24 h ([3]; Tween 80, 10x, aqueous with cosolvent or surfactant or cyclodextrin, thermodynamic from solid): < 100 µg/mL
XRD Pattern At Equilibrium ([3]; Tween 80, 100x): Form C
solubility thermodynamic at 24 h ([3]; Tween 80, 100x, aqueous with cosolvent or surfactant or cyclodextrin, thermodynamic from solid): < 100 µg/mL
Equilibrium Solubility ([3]; Vitamin E): 40.6** mg/mL
XRD Pattern At Equilibrium ([3]; Vitamin E): Form D
XRD Pattern At Equilibrium ([3]; pH 1.0 HCl): Forms C & D
solubility thermodynamic at 24 h ([3]; pH 1.0 HCl, pH 1, simulated gastric fluid, thermodynamic from solid): < 100 µg/mL
XRD Pattern At Equilibrium ([3]; pH 7.4): Form D
solubility thermodynamic at 24 h ([3]; pH 7.4 medium (buffer not named), pH 7.4, aqueous buffer, thermodynamic from solid, pH 7.4): < 100 µg/mL
XRD Pattern At Equilibrium ([3]; pH 10.0 NaOH): Forms C & D

CC[C@H](C)C(=O)N1CCC(NC(=O)Nc2ccc(OC(F)(F)F)c(F)c2)CC1 [Formula (I), (S)-1-(3-fluoro-4-(trifluoromethoxy)phenyl)-3-(1-(2-methylbutanoyl)piperidin-4-yl)urea]
time without visual precipitation in PEG300 ([2]; 100 mg/mL in PEG300, room temperature): 9 days
precipitation from PEG300 ([2]; 200 mg/mL in PEG300): readily precipitated overnight
solubility thermodynamic ([3]; organic solvent or mixture, thermodynamic from solid, PEG300, PEG400, propylene glycol, vitamin E TPGS, Gelucire 44/14, castor oil hydrogenated, Capmul MCM NF, Capmul MCM EP, Kolliphor HS-15, Kolliphor EL, Labrasol, Transcutol HP, approx. 24 hours): > 20000 µg/mL
